# Data taken from patent US8778302B2, “Procaspase 8-mediated disease targeting” (The University of British Columbia, priority 2007, dated 2014).
# How the values were obtained:
# [1] = test system: Caspase 8 in MIP/SP tumors; assay: Caspase 8 protein activity in MIP/SP tumor xenografts; type: in vivo, nude mice; settings: MIP/SP tumors from animals treated with 5-FU (FIG. 6C)
# Description: In addition, tumor xenografts of MIP/ZEO and MIP/SP cells from nude mice treated with either 5-FU (three consecutive days) or saline, were collected after the 1st cycle of treatment and homogenized (Kinematica, POLYTRON-Aggregate). Lysates were then prepared for immunoblot or RT-PCR. […] Similarly, cells seeded on coverslips at 150,000 cells/well in a E-well plate, treated 24 hours later with 1000 μM 5-FU for 2 hours were then fixed in 2% paraformaldehyde and processed for immunofluorescence staining as previously described [27]. In both cases, α-caspase 8 (1:50, paraffin-embedded tissues; 1:100, cells on coverslips) antibody was used and incubated overnight at 4° C., and counterstained with DAPI. Zeiss Axioplan 2 Fluorescence microscope was used for image capture.
# MIP/SP cells [2] = assay: caspase 8/9 inhibition, cell viability by MTS, MIP/SP; type: cell-based, human
# Description: (§1) caspase 8/9 Inhibition: Cells were seeded (96-well plates), and incubated 24 hours later (˜60% confluence) with 10-50 μM of Caspase 8-like inhibitor (z-IETD-fmk, Sigma) or Caspase 9-like inhibitor (z-LEHDfink•TFA, Sigma) for 30 minutes, followed by incubation with 1000 μM 5-FU for an additional 24 hours. Cell viability was assessed by MTS assay.
# HCT116 cells = assay: Cell viability (MTS) assay after Caspase 8 siRNA, HCT116; type: cell-based, human; settings: HCT116, Caspase 8 siRNA+5-FU
# Description: (§2) Cell Lines: MIP101 and HCT116 (ATCC) human CRC cells were maintained in DMEM media supplemented with 1% penicillin-streptomycin, 1% kanamycin (Invitrogen) and 10% newborn calf serum at 37° C. and 5% CO2. […] MIP101 transfected with empty vector (VIIP/ZEO) and MIP101 cells stably transfected with SPARC (MIP/SP), were also supplemented with 0.01% zeocin (Invitrogen).
# (§3) Cell viability was assessed by MTS assay (Promega) at 490 nm. Caspase 3/7 Assay: Cells were transiently transfected with 40 nM of Caspase 8 siRNA for 48 hours, and incubated with 1000 μM 5-FU for another 48 hours. Total cell lysates were isolated and 20 μg of total protein/sample were used in Caspase-Glo 3/7 Assay (Promega), using a 1:1 dilution of Caspase-Glo 3/7 Substrate. Relative luminescence units (RLU) was quantified using a Viktor2 1420 Multilabel counter (Perkin Elmer).
# MIP/ZEO cells [3] = assay: Cell viability (MTS) assay after Caspase 8 siRNA, MIP/ZEO; type: cell-based, human; settings: Caspase 8 knock-down
# Description: as §2, §3
# MIP/5FU cells [4] = assay: TUNEL assay, MIP/5FU; type: cell-based, human; settings: 5-FU treatment (FIG. 4B, C)
# Description: (§4) TUNEL Assay: Cells were seeded (24-well plates) to achieve ˜60% confluence 24 hours later for transient transfection with Caspase 8 siRNA. 36 hours later, cells were incubated with 1000 μM 5-FU for 36 hours, harvested (suspension and attached cells) and fixed onto glass slides with Shandon cytospin at 2000 rpm for 10 minutes and stained as per manufacturer's instructions (Promega). The number of TUNEL-positive cells was counted and averaged from four different fields (n=4 independent experiments, with slides read independently by two individuals in a blinded fashion).
# MIP/ZEO cells [5] = assay: caspase 8/9 inhibition, cell viability by MTS, MIP/ZEO; type: cell-based, human
# Description: as §1
# [6] = test system: Caspase 3/7 activity in MIP/ZEO cells; assay: Caspase 3/7 assay (Caspase-Glo), MIP/ZEO; type: cell-based, human
# Description: as §3, with “Caspase 3/7 Assay: Cells were transiently transfected with 40 nM of Caspase 8 siRNA for 48 hours, and incubated with 1000 μM 5-FU for another 48 hours.” left out
# [7] = test system: Caspase 3 activation in MIP/5FU cells; assay: Caspase 3/7 assay (Caspase-Glo), MIP/5FU; type: cell-based, human; settings: Caspase 8 siRNA or scramble control (FIG. 4A)
# Description: as §3
# MIP/SP cells [8] = assay: Cell viability (MTS) assay after Caspase 8 siRNA, MIP/SP; type: cell-based, human; settings: Caspase 8 gene silencing, after 5-FU treatment (0-1200 μM) (FIG. 3A)
# MIP/5FU cells [9] = assay: Cell viability (MTS) assay after Caspase 8 siRNA, MIP/5FU; type: cell-based, human; settings: with Caspase 8 knock-down (FIG. 3B)
# Description: as §2, §3
# MIP/ZEO cells [10] = assay: TUNEL assay, MIP/ZEO; type: cell-based, human; settings: 5-FU
# Description: as §4
# [11] = test system: Caspase 3/7 activity in MIP/SP cells; assay: Caspase 3/7 assay (Caspase-Glo), MIP/SP; type: cell-based, human
# Description: as §3, with “Caspase 3/7 Assay: Cells were transiently transfected with 40 nM of Caspase 8 siRNA for 48 hours, and incubated with 1000 μM 5-FU for another 48 hours.” left out
# MIP/SP cells [12] = assay: TUNEL assay, MIP/SP; type: cell-based, human
# Description: as §4
# [13] = in vitro cytotoxicity of ABX and Taxol; type: cell-based; settings: Homo sapiens, A-431; A431 line
# Procaspase 8 = biological target: T1, Procaspase 8 (Homo sapiens, UniProt Q14790); assay: immunoprecipitation of Procaspase 8 with truncated SPARC polypeptides; type: binding; settings: truncated SPARC polypeptide near amino terminus (MIP/NT), FIG. 8
# T1 construct: endogenous in cells; host or cells: MIP101-derived cells expressing SPARC fragments (MIP/NT, MIP/FS, MIP/EC)
# T1 sequence (Q14790 whole entry, the tested form may be a part): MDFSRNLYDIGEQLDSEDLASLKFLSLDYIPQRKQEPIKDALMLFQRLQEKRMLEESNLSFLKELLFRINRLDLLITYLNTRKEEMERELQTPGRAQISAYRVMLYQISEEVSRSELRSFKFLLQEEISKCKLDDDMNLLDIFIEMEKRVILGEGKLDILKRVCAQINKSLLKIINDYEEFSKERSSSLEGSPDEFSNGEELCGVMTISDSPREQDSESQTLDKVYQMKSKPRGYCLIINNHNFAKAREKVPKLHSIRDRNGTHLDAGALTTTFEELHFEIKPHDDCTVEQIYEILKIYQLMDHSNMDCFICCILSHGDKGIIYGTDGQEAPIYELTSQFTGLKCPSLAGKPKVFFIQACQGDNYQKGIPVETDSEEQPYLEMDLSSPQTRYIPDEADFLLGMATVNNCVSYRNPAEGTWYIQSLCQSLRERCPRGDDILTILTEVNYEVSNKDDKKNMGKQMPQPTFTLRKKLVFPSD
# Description: Immunopreciptation was performed with anti-histidine tag antibody (IP: His) (See FIG. 8A) or an anti-Caspase 8 antibody (IP: Capsaase 8) (See FIG. 8B) in the presence of Procaspase 8 and truncated SPARC polypeptides comprising a sequence near the SPARC amino terminus (SEQ ID NO: 20) (MIP/NT), a sequence from the SPARC follistatin-like domain (SEQ ID NO: 22) (MIP/FS), a sequence from the SPARC extracellular domain (SEQ ID NO: 24) (MIP/EC) or a control antibody (IgG).
# [14] = test system: Caspase 8 expression in MIP 101 tumor xenografts; assay: Caspase 8 expression in MIP 101 mouse tumor xenografts; type: in vivo, NIH nude mice; settings: mice administered SPARC as single agent (FIG. 6D)
# Description: Animal Studies: Tumors harvested from xenografts from animals (NIH nude mice, 6 weeks old, Taconic Laboratories) were used for histology, RT-PCR or immunoblot. 2×10^6 MIP101 cells were injected into the left flank.
# Experimental groups (2 animals/group) for this study included treatment with: SPARC, SPARC+5-FU, 5-FU only, and saline. In addition, tumor xenografts of MIP/ZEO and MIP/SP cells from nude mice treated with either 5-FU (three consecutive days) or saline, were collected after the 1st cycle of treatment and homogenized (Kinematica, POLYTRON-Aggregate). Lysates were then prepared for immunoblot or RT-PCR. All animals received care according to standard animal care protocol and guidelines. […] Similarly, cells seeded on coverslips at 150,000 cells/well in a E-well plate, treated 24 hours later with 1000 μM 5-FU for 2 hours were then fixed in 2% paraformaldehyde and processed for immunofluorescence staining as previously described. In both cases, α-caspase 8 (1:50, paraffin-embedded tissues; 1:100, cells on coverslips) antibody was used and incubated overnight at 4° C., and counterstained with DAPI. Zeiss Axioplan 2 Fluorescence microscope was used for image capture.
# [15] = biological target: T2, interaction between Bcl-2 and Procaspase 8 (Homo sapiens, UniProt Q14790); assay: co-immunoprecipitation of Bcl-2 and Procaspase 8 with exogenous SPARC; type: binding; settings: addition of exogenous SPARC, 10 μg/ml for 72-hrs; resistant cell lines (FIG. 9C)
# T2 construct: lysates were separated into nuclear, cytosolic, and membrane fractions; endogenous in cells; host or cells: MIP/5FU (MIP101 resistant to 5-FU) and MiaPaca/CPT cells
# T2 sequence (Q14790 whole entry): as the sequence (Q14790 whole entry, the tested form may be a part) above
# Description: Cells were grown until ˜80% confluence, and lysates were separated into nuclear, cytosolic, and membrane fractions. 250 μg of individual cellular fractions were incubated with antibodies against HIS (1:100, Sigma), capsase 8 (N-terminus) (1:100, Abcam), Bcl-2 (1:100, Cell Signaling Technologies) or a non-specific anti-mouse IgG antibody as control (Cell Signaling Technologies), in PBS overnight (4° C.). Protein:Antibody mixture was then incubated with […] of Protein A:Protein G (Sigma) (1:1) beads for 4 hours (4° C.). For all complexes, beads were washed with PBS, and eluted with 2×SDS-loading buffer, and used for immunoblotting against caspase 8, HIS, or Bcl-2.
# In order to determine the region of interaction between Bcl-2 and Procaspase 8, cells were also incubated with antibodies against caspase 8 targeting its C-terminus (Cell Signaling) or N-terminus (Abeam) in vitro for 24 hours at 1.5-3.0 μg prior to collecting and fractionating the cell lysates for immunoprecipitation. In addition, to assess if exogenous SPARC interferes with the interaction of procaspase 8 and Bcl-2, cells were incubated with 10 μg/ml of SPARC for 72-hrs, in the presence or absence of antibodies against SPARC (3 μg, Hematologic Technologies) for 24 hrs, prior to collection for cellular fractionation and immunoprecipitation.
# [16] = Homo sapiens, 1000 μM 5-FU for 24 hours only, read-out: decrease in cell viability
molecule,measurement,setting,value
"O=c1[nH]cc(F)c(=O)[nH]1 [5-FU, 5-fluorouracil]",Caspase 8 protein activity in tumors,[1],highest
same,cytotoxicity at 1000 µM,MIP/SP cells [2]; [16],16.8 ± 4.5%
same,viable cells,HCT116 cells,88.2±2.3%
same,cell viability,MIP/ZEO cells [3]; following 5-FU treatment (FIG. 3B),75.5±0.5%
same,viability at 1200 µM,"MIP/ZEO cells [3]; Homo sapiens, 5-FU 1200 μM (FIG. 3A)",52.1 ± 1.7%
same,apoptosis response (TUNEL),MIP/5FU cells [4],did not respond to 5-FU treatment significantly
same,decrease in cell viability,MIP/ZEO cells [5]; 5-FU-treated after pre-incubation with Caspase 8-like inhibitor,14.0±4.6%
same,cytotoxicity at 1000 µM,MIP/ZEO cells [5]; [16],21 ± 5.9%
same,Caspase 3/7 activity,"[6]; MIP/ZEO cells, 12 hours after incubation with 5-FU",9954.0±1104.8 RLU
same,Caspase 3/7 activity,"[6]; MIP/ZEO, 5-FU, scramble control",1915.0±661.3 RLU
same,Caspase 3/7 activity,"[6]; MIP/ZEO, 5-FU, transfected with Caspase 8 siRNA",2321.3±661.3 RLU
same,Caspase 3 activation,[7],No Caspase 3 activation was observed
same,cell viability (viable cells),MIP/SP cells [8],97.6±1.4%
same,effect of 5-FU on cell viability,MIP/5FU cells [9],remained unaffected
same,apoptotic cells (TUNEL),MIP/ZEO cells [10]; no transfection with Caspase 8 siRNA,12.2±0.7%
same,apoptotic cells (TUNEL),MIP/ZEO cells [10]; transfection with Caspase 8 siRNA,12.5±2.4%
same,Caspase 3/7 activity,"[11]; MIP/SP cells, 12 hours after incubation with 5-FU",16397.0±2787.6 RLU
same,Caspase 3/7 activity,"[11]; MIP/SP transfected with Caspase 8 siRNA, 5-FU treated",291.0±34.7 RLU
same,Caspase 3/7 activity,"[11]; control MIP/SP cells, 5-FU treated",5501.0±800.0 RLU
same,apoptotic cells (TUNEL),"MIP/SP cells [12]; MIP/SP exposed to 5-FU, no Caspase 8 inhibition",20.7±6.9%
same,apoptotic cells (TUNEL),"MIP/SP cells [12]; MIP/SP, 5-FU following Caspase 8 gene knock-down",0.5±0.5%
"CC(=O)O[C@H]1C(=O)[C@@]2(C)[C@H]([C@H](OC(=O)c3ccccc3)[C@]3(O)C[C@H](OC(=O)[C@H](O)[C@@H](NC(=O)c4ccccc4)c4ccccc4)C(C)=C1C3(C)C)[C@]1(OC(C)=O)CO[C@@H]1C[C@@H]2O [TAX, Taxol]",IC50,[13],0.012 µg/mL
SEQ ID NO: 20: truncated SPARC polypeptide comprising a sequence near the SPARC amino terminus (APQQEALPDETEVVEETVAEVTEVSVGANPVQVEVGEFDDGAEETEEEVVA; SPARC Polypeptide Expressed in MIP/NT cells),interaction with Procaspase 8 (co-immunoprecipitation),Procaspase 8,involves a SPARC domain which is within the amino acid sequence of SEQ ID NO: 20
z-IETD-fmk,effect of Caspase 8-like inhibitor on 5-FU-induced decrease in cell viability,"MIP/SP cells [2]; pre-incubation with inhibitor (as low as 10 μM), then 1000 μM 5-FU",prevented a significant decrease in cell viability
same,effect of Caspase 8-like inhibitor on 5-FU-induced decrease in cell viability,"MIP/ZEO cells [5]; inhibitor 50 μM, then 5-FU",no such effect could be demonstrated
z-LEHD-fmk•TFA,effect of Caspase 9-like inhibitor on 5-FU-induced decrease in cell viability,MIP/SP cells [2]; inhibitor then 5-FU,preventing a significant decrease in cell viability
same,effect of Caspase 9-like inhibitor on 5-FU-induced decrease in cell viability,MIP/ZEO cells [5]; inhibitor then 5-FU,preventing a significant decrease in cell viability
"SPARC: Secreted Protein, Acidic, Rich in Cysteines, a 281 amino acid glycoprotein (protein, left off: small tags and cut ends, Secreted Protein, Acidic, Rich in Cysteines, a 281 amino acid glycoprotein) APQQEALPDETEVVEETVAEVTEVSVGANPVQVEVGEFDDGAEETEEEVVAENPCQNHHCKHGKVCELDENNTPMCVCQDPTSCPAPIGEFEKVCSNDNKTFDSSCHFFATKCTLEGTKKGHKLHLDYIGPCKYIPPCLDSELTEFPLRMRDWLKNVLVTLYERDEDNNLLTEKQKLRVKKIHENEKRLEAGDHPVELLARDFEKNYNMYIFPVHWQFGQLDQHPIDGYLSHTELAPLRAPLIPMEHCTTRFFETCDLDNDKYIALDEWAGCFGIKQKDIDKDLVI",Caspase 8 expression in tumor xenografts,[14],higher levels of Caspase 8
same,blocking of interaction between Bcl-2 and Procaspase 8,[15],can be blocked
